Test results as given in US20190145953A1, “METHODS AND MATERIALS FOR ASSESSING INTESTINAL PERMEABILITY” (Mayo Foundation for Medical Education and Research, priority 2016, published 2019).
One block for each compound: values may come before it.

What was measured:
[1] = Cumulative urinary excretion of oral sugars by HPLC-MS in IBS-C patients and healthy volunteers (Example 3); assay type: in vivo, human
Protocol: The following was performed to determine duodenal and colonic barrier function and endotoxin activity in females with IBS-C in comparison to healthy. 16 IBS-C (Rome III) patients and 13 matched healthy volunteers (females) were given oral lactulose, ^12C mannitol and ^13C mannitol measured cumulatively over 0-2 and 8-24 hours by HPLC-MS. 10 biopsies were obtained from duodenum and sigmoid colon. Mucosal transepithelial resistance (TER), FITC dextran (4 KDa), and E. coli K12 BioParticle flux were measured in Ussing chambers. Endotoxin activity (blood) was measured towards gram-negative bacterial lipopolysaccharide. Unpaired 2-sided t-tests were used for comparisons.

[2] = assay type: in vivo, human
Protocol: 24 healthy volunteers (12 females) aged 18-65 years are recruited. Those using NSAIDs, oral corticosteroids, artificial sweeteners (Splenda, aspartame), lactulose, mannitol, or medications affecting gastrointestinal transit are excluded. All 24 participants undergo a baseline urinary excretion assay using the three saccharides (100 mg ^13C mannitol, 100 mg ^12C mannitol, and 1000 mg lactulose) dissolved in 250 mL of water. 500 mL of water is administered 30 minutes after the sugars are ingested to aid in the production of urine. Participants are allowed regular amounts of water throughout the study, and no standardized meals are provided. Cumulative urine samples for 0-2 hours are collected while they are in the CRU and stored. Two containers are provided for the cumulative 2-8 hour collection and cumulative 8-24 hour collection. Participants are instructed to return these collections the following day. The collections are subjected to HPLC-MS for quantitative estimation of the sugars.
These participants receive 75 mg of Indomethacin orally 8 hour and 30 minutes prior to a second urinary excretion assay using the same three sugars. Finally, these participants undergo a third assay after 4 weeks from the end of the second assay in the absence of any indomethacin or other NSAIDs or perturbations. All three assays are done using the same protocol and urinary collections. Additionally, these participants undergo an upper endoscopy with duodenal biopsies at baseline and after Indomethacin challenge. The ^13C mannitol-assay based urinary excretion findings are correlated with histology findings on light microscopy and with ex vivo mucosal barrier function/permeability. For this, tw freshly obtained biopsies are mounted in 4 mL Ussing chambers (Physiological Instruments, California, USA) exposing a 0.03 cm^2 area. Transepithelial resistance is measured using Ag/AgCl electrodes with agar-salt bridges and current delivered with platinum electrodes. Macromolecular flux across biopsies are studied using FITC Dextran (4 kDa, Molecular Probes, New York). At 30-minute intervals for a total of 3 hours, basal compartment fluorescence are analyzed.
At each visit, baseline excretion of ^12C mannitol was higher than the ^13C mannitol (p<0.0001) with 5 of 73 subjects excreting >10 mg of ^12C mannitol prior to test dose administration. At visit 1, one subject excreted 62 mg of ^12C mannitol, which dropped to 28 mg after test dose administration.
This recovered completely at visit 3. Both low and high dose Indomethacin had similar effects. […] It is possible that intestinal microflora can influence the L:M based excretion assay for intestinal permeability. To test this, seven patients underwent a fourth testing following bowel prep with MoviPrep. […] This could reflect increased transit after the bowel prep resulting in less contact time between the sugar and the absorptive surface area.

[3] = human, in vivo
Protocol: The following was performed to determine if administration of ^13C-mannitol can be used to measure intestinal permeability. Ten healthy volunteers (five females) received oral sugars after 8 hours of fasting. Those volunteers using tobacco, NSAIDs, oral corticosteroids, sweeteners, lactulose, mannitol, or medications affecting gastrointestinal transit were excluded. Three saccharides (100 mg of ^13C-mannitol, 100 mg of ^12C-mannitol (regular mannitol), and 1000 mg of ^12C-lactulose (regular lactulose)) dissolved in 250 mL of water were administered. 0-2 hour cumulative mannitol and 8-24 hour cumulative lactulose or mannitol excretion were measured to assess small intestinal and colonic permeability, respectively. After baseline urine collection, collections were pooled for 0-2 hours, 2-8 hours, and 8-24 hours following administration of test sugars. High performance liquid chromatography-tandem mass spectrometry was performed to determine urinary sugar concentrations. Cumulative excretions and lactulose:mannitol (L:M) ratios (ratio of fractional excretion) were calculated. Mann-Whitney test was used for statistical analysis.

colonic bacteria = conditions: in vivo, po; cited from earlier work
[4] = human, in vivo; remark: listed apart in the source
Protocol: The following was performed to evaluate safety and effectiveness of oral nutritional therapy with serum-derived bovine immunoglobulin (SBI) on symptoms, epithelial barrier function, and mucosal expression of pivotal genes in small intestinal mucosa (SI) in patients with IBS-D. This open-label pilot study evaluated effects of SBI, 5.0 g twice daily for 8 weeks, in 15 patients with IBS-D (Rome III) on symptoms, tryptophan metabolism (kynurenine to tryptophan ratio), intestinal permeability [measured by two sugars (^13C-mannitol and lactulose) urine excretion: 0-2 hours (SI) and 2-8 hours (SI and colon)] and distal duodenal mucosal mRNA expression of pivotal genes including tight junction, secretory mechanisms, tissue repair proteins and chemokines. Bowel function and abdominal pain (worst and average) were evaluated using a daily diary including the Bristol Stool Form Scale, and bile acid homeostasis by fasting serum FGF-19 and 7αC4. Statistical analysis was based on ITT principles using paired tests (comparing baseline with results of therapy over 8 weeks or in final 2 weeks) and included imputation for missing data for one patient.

[5] = Indomethacin challenge, p=0.004

Compound: COc1ccc2c(c1)c(CC(=O)O)c(C)n2C(=O)c1ccc(Cl)cc1 [Indomethacin]
- 0-2h lactulose excretion compared to baseline (visit 1) ([2]; Indomethacin challenge, p<0.0001): increased
- 2-8h lactulose excretion compared to baseline (visit 1) [2, 5]: increased
- 8-24h lactulose excretion compared to baseline (visit 1) [2, 5]: increased
- 12C or 13C mannitol excretion with Indomethacin treatment ([2]; either excretion time-point): did not increase

Compound: OC[C@@H](O)[C@@H](O)[C@H](O)[C@H](O)CO [mannitol]
- Fraction of orally ingested mannitol metabolized by colonic bacteria (colonic bacteria): about 75%

The next lines start with results.

- 0-2 hr cumulative urinary excretion (mg), mean (SEM) ([1]; Healthy Volunteers (n=11)): 0.99(0.12) mg
- 8-24 hr cumulative urinary excretion (mg), mean (SEM) ([1]; Healthy Volunteers (n=11)): 0.72(0.31) mg
- 0-2 hr cumulative urinary excretion (mg), mean (SEM) ([1]; IBS-C (n=16)): 1.12(0.19) mg
- 8-24 hr cumulative urinary excretion (mg), mean (SEM) ([1]; IBS-C (n=16)): 1.06(0.55) mg
Compound: OC[C@H]1O[C@@H](O[C@@H]2[C@@H](CO)OC(O)(CO)[C@H]2O)[C@H](O)[C@@H](O)[C@H]1O (mixture of isomers) [lactulose]

- L:M ratio: Mean (SEM), 0-2 hours [3]: 0.006
- L:M ratio: Mean (SEM), 2-8 hours [3]: 0.009
- L:M ratio: Mean (SEM), 8-24 hours [3]: 0.002
- Participants with disproportionately high baseline excretion [3]: Three of the ten
- Baseline excretion ([2]; in vivo): higher
- Cumulative (0-24h) mean recovery, comparison 12C vs 13C mannitol ([2]; in vivo): significantly higher
- Excretion of one subject after test dose administration ([2]; in vivo): 28 mg
- Excretion of one subject at baseline ([2]; in vivo): 62 mg
- Subjects excreting >10 mg prior to test dose administration ([2]; in vivo): 5 of 73
Compound: OC[C@@H](O)[C@@H](O)[C@H](O)[C@H](O)CO [^12C-mannitol]
- Change of excretion in the 0-2 hr interval compared with baseline ([2]; in vivo): four subjects exhibited no significant increase

- L:M ratio: Mean (SEM), 0-2 hours [3]: 0.007
- L:M ratio: Mean (SEM), 2-8 hours [3]: 0.01
- L:M ratio: Mean (SEM), 8-24 hours [3]: 0.01
- Mean lower baseline contamination vs 12C mannitol [3]: 20 fold
- Participants with disproportionately high baseline excretion [3]: none
- Excretion at baseline in IBS-D patients vs 8 healthy controls [4]: did not differ
- Baseline excretion ([2]; in vivo): nearly undetectable
- Change of excretion in the 0-2 hr interval compared with baseline ([2]; in vivo): increased in all cases
Compound: ^13C-mannitol
